Where “and” joins values, the source holds several entries; their conditions need not be identical. Equal values may be shown once.
What was measured:
[1] = tested on: C. glutamicum CR099; experiment: Resistance of C. glutamicum CR099 to antimicrobial peptides, endpoint growth in 96-well microtiter plates; assay type: cell-based, Corynebacterium glutamicum
Method: Values are mean±standard deviation of n=4-7 independent experiments. (B) Growth of C. glutamicum CR099 in standard batch culture in 2xTY medium with 2% Glc in the presence (+PA-1) or absence (−PA-1) of 2.0 μg/mL pediocin. Values are mean±standard deviation of n=4 independent experiments. Growth rates were calculated during exponential growth phase. (C) Growth inhibition of L. monocytogenes EGDe::pIMK2 by supernatants of C. glutamicum CR099 in 2xTY medium with 2% Glc plus 2 μg/mL pure pediocin (+CR099). Supernatants were collected during the experiment shown in (B) at the indicated time-points. As controls, pediocin was incubated under the same conditions in sterile medium (−CR099). Values are OD600 of the indicator strain L. monocytogenes EGDe in a growth assay at the indicated dilutions of the samples and are mean±standard deviation of n=3 independent experiments. […]
The receptors for bacteriocins of the pediocin family on target organisms are the IIC and IID subunits of a sub-family of mannose-specific phosphotransferase systems (PTS^Man; PMID: 19477899). […] To corroborate this assumption, the resistance of C. glutamicum CR099 against different antimicrobial peptides was determined using an endpoint measurement of growth in 96-well microtiter plates (FIG. 2A).

[2] = tested on: L. lactis NZ9000/pNZ-Pnis-mCherry^Lla; experiment: Nisin sensor strain mCherry fluorescence assay; assay type: cell-based, Lactococcus lactis; conditions: 96-well microtiter plate assay
Method: (B) A photo of the bacterial pellet taken after growth in GM17 medium containing 10 ng/ml nisin.
Black lines indicate absorbance at 214 nm in milli arbitrary units (mAU) and grey lines % of solution B in the elation buffer. Broken lines indicate the boundaries of the peak fractions collected for further analysis. (B) L. lactis NZ9000/pNZ-Pnis-mCherry^Lla was used to assay presence of nisin in different samples during purification of ammonium sulphate-precipitated supernatants of C. glutamicum CR099/pXMJ-nisZBTC^opt (SN: plain culture supernatant; precip: ammonium sulphate precipitated supernatant proteins; IEX: peak fraction of ion exchange chromatography; RP peak fraction of reverse phase chromatography. pos: 10 ng/ml nisin; +/−: activation by trypsin).
The sensitivity of the spot-on-lawn assay using C. glutamicum CR099 as an indicator strain is very low. […] The strain L. lactis NZ9000/pNZ-Pnis-mCherry^Lla contains the NisRK two-component system and harbours a pNZ-derives plasmid for expression the red-fluorescent protein mCherry from the Pnis promoter (FIG. 11A), which is activated by NisR in a strictly nisin-dependent manner. In this construct, the coding sequence of the mCherry protein is optimized for codon usage of L. lactis. The respective sensor strain results in reddish coloured bacteria after o/N growth in the presence of 10 ng mL^−1 (FIG. 11B). […]

[3] = tested on: L. monocytogenes EGDe::pIMK2; experiment: Microtiter plate growth inhibition assay, L. monocytogenes indicator; assay type: cell-based, Listeria monocytogenes; conditions: serial 2-fold dilutions of pediocin standard
Text: (§1) (B) Growth inhibition of L. monocytogenes EGDe::pIMK2 by supernatants of P. acidilactici 347 (Paci) collected in early stationary growth phase at the indicated dilution. Values are mean±standard deviation of at least n=3 independent experiments per condition. Dilution series sterile H2O (A) or MRS medium (B) were used as negative controls. Hatched bars indicate growth of the indicator strain without addition of diluted supernatant or pediocin, i.e. maximum growth. The bottom and top lines indicate OD600 of the positive (i.e. complete inhibition of growth) or negative (i.e. in the absence of an antimicrobial peptide), respectively. The broken middle line represents growth inhibition of 50%, i.e. the threshold to calculate bacteriocin units.
Pediocin PA-1 is a bacteriocin with potent antimicrobial activity against a range of Gram-positive microorganisms including important human pathogens such as Listeria monocytogenes. As a first step towards recombinant production of pediocin PA-1, a growth-dependent assay was established using L. monocytogenes EGDe::pIMK2 or L. innocua LMG2785::pIMK2 as indicator strains, and commercially available, purified pediocin (FIG. 1A). […]
(§2) To validate the assay, anti-microbial activity in supernatants of P. acidilactici 347, a natural producer of pediocin was measured following growth in MRS medium to early stationary growth phase (FIG. 1B). […]

[4] = tested on: L. innocua LMG2785::pIMK2; experiment: Microtiter plate growth inhibition assay, L. innocua indicator; assay type: cell-based, Listeria innocua; conditions: serial 2-fold dilutions of pediocin standard
Text: as §1
2h after inoculation Glc (2% w/v) and IPTG (0.1 mM) were added to induce production of pediocin (B) Growth inhibition of L. innocua LMG2785::pIMK2 by different dilutions of supernatants of C. glutamicum CR099/pEKEx2-pedACD (pedACD) collected at the indicated timepoints during the growth experiment shown in (A). All values are mean±standard deviation of n=3 independent experiments. […]
as §2

[5] = tested on: C. glutamicum CR099; experiment: Growth of C. glutamicum CR099 in standard batch culture with pediocin; assay type: cell-based, Corynebacterium glutamicum; conditions: 2 μg mL^−1 pediocin, baffled Erlenmeyer flask, 2xTY with 2% Glc
Method: (§3) Values are mean±standard deviation of n=4-7 independent experiments. (B) Growth of C. glutamicum CR099 in standard batch culture in 2xTY medium with 2% Glc in the presence (+PA-1) or absence (−PA-1) of 2.0 μg/mL pediocin. Values are mean±standard deviation of n=4 independent experiments. Growth rates were calculated during exponential growth phase. (C) Growth inhibition of L. monocytogenes EGDe::pIMK2 by supernatants of C. glutamicum CR099 in 2xTY medium with 2% Glc plus 2 μg/mL pure pediocin (+CR099). Supernatants were collected during the experiment shown in (B) at the indicated time-points. As controls, pediocin was incubated under the same conditions in sterile medium (−CR099). Values are OD600 of the indicator strain L. monocytogenes EGDe in a growth assay at the indicated dilutions of the samples and are mean±standard deviation of n=3 independent experiments. In all graphs, the bottom and top lines indicate OD600 of the positive (i.e. complete inhibition of growth) or negative (i.e. in the absence of an antimicrobial peptide), respectively. The broken middle lines represent growth inhibition of 50%, i.e. the threshold to calculate bacteriocin units.
By contrast, C. glutamicum CR099 was able to grow in the presence of at least 12.5 μg mL^−1 pediocin PA-1.

[6] = tested on: L. monocytogenes EGDe::pIMK2; experiment: Pediocin activity remaining in culture supernatant during C. glutamicum CR099 cultivation; assay type: cell-based, Listeria monocytogenes
Method: as §3
Additionally, activity of pediocin was measured in the culture supernatant at select timepoints during the cultivation. […] The observed reduction in activity was therefore considered to be related to adsorption of the positively charged pediocin to the negative surface of bacteria and, at later timepoints, to oxidative inactivation.

Row | Substance | concentration above which growth of C. glutamicum CR099 is inhibited ([1]; preliminary experiments) [ng/mL] | limit of detection of the sensor strain for active nisin [2] | minimal concentration to completely inhibit growth of the indicator strain [3] [ng/mL] | minimal concentration to completely inhibit growth of the indicator strain [4] [ng/mL] | concentration in the presence of which C. glutamicum CR099 was able to grow ([1]; 96-well microtiter plates, endpoint growth) | effect on final optical density and growth rate [5] | pediocin activity in culture supernatant, initial ([6]; 2 μg/mL pediocin in growing C. glutamicum CR099 culture, start) [BU mL^−1] | pediocin activity after 24 hours in control incubation ([6]; 2xTY without bacteria, 24 hours) | pediocin activity in culture supernatant after slight initial reduction ([6]; growing C. glutamicum CR099 culture, stable for several hours) [BU mL^−1] | pediocin activity in culture supernatant after 24 hours ([6]; in the presence of C. glutamicum CR099, 24 hours) [BU mL^−1]
1 | nisin | > 100 | 0.2 to 0.5 ng/mL and 0.25 to 0.5 ng/mL | – | – | – | – | – | – | – | –
2 | pediocin PA-1 (KYYGNGVTCGKHSCSVDWGKATTCIINNGAMAWATGGHQGNHKC; listed as Pediococcus acidilactici) [commercially available, purified Class IIA bacteriocin] | – | – | 39 | 39 | at least 12.5 μg mL^−1 | did not affect final optical density and growth rate | 2560 | the same reduction was observed | 1280 | 160

Reference: patent US20220348615A1, “PRODUCTION OF BACTERIOCINS” (priority 2021, published 2022)
